Measurements published in patent US20030037354A1, “Animal model with disrupted Fgf14 gene” (priority 2001, published 2003).
Read-outs that look alike come from different tables or passages of the source.

Assays:
[1] = system: wildtype and FGF14 deficient mice; experiment: PTZ-induced seizure: latency to onset and time to death; assay type: in vivo, mouse; conditions: for time to death (mean duration): FGF14 (−/−) mice
Method: Time to onset of tonic-clonic seizure was recorded. In the first experiment (FIG. 9), the mean age was 82 days and the sex ratio was 50% male/female. In the second experiment, the mean age was 354 days and all animals were female.

[2] = system: wildtype and Fgf14^N-βGal/N-βGal mice; experiment: Locomotor activity response to stimulant drugs and dopamine receptor agonists; assay type: in vivo, mouse
Method: Locomotor activity. For the locomotor activity experiments, all mice were acclimated to the activity cages (28 cm long×17 cm wide×12.5 cm high) for one hour on two consecutive days. […] Mice were tested every other day and the order of drug treatment was counterbalanced across days within genotype groups. Locomotor activity was recorded every five minutes by two beams of red light placed at 10 and 19 cm along the length of the activity cage.
Statistical Analyses. The behavioral data were analyzed using analysis of variance (ANOVA) models typically containing one between-subjects variable (Genotype) and one within-subjects variable (e.g., Trials or Test Sessions). Subsequent one-way ANOVAs were used to evaluate main effects. Data from the experiments concerning drug effects on locomotor activity were analyzed by using a […] analysis of variance (ANOVA) with one between-subjects variable (Drug) being added to the above model. […] Alpha was set at p<0.05 for all analyses.

extracellular dopamine = conditions: cited from earlier work
[3] = system: Dopamine D1 receptor deficient mice; conditions: cited from earlier work
[4] = system: wildtype and Fgf14^N-βGal/N-βGal mice; experiment: Cocaine-induced seizure activity with EEG recording; assay type: in vivo, mouse
Method: Surgical implantation of skull screw electrodes was performed with the mice positioned in a stereotaxic frame under halothane anesthesia. Using sterile technique, the scalp was incised at the midline and the periosteum was scraped free from the skull. Three burr holes were made with a high speed drill for placement of epidural screw electrodes. Two active electrodes were placed over the right and left frontal cortex approximately 1 mm posterior to the bregma. A reference electrode was implanted in the region over the frontal sinus. The electrodes and lead wires were stabilized to the skull with dental cement. The mice were allowed a three-day recovery period before recording. Reference EEG recordings from the right and left frontal regions were performed using a Grass P5 Series AC amplifier with high and low frequency filter settings at 100 and 1 Hz, respectively. The outputs of the amplifiers were digitized and stored using an analog-to-digital converter and Axoscope software.

[5] = Fgf14^N-βGal/N-βGal mice, 40 mg/kg

With `C1CCc2nnnn2CC1` [PTZ, pentylenetetrazol] the “time to death (mean duration)” value ([1]; Experiment 1, 100 mg/kg IP, average age 82 days) was “about 4200 seconds”, the “time to death (mean duration)” value ([1]; Experiment 2, 75 mg/kg IP, average age 354 days) was roughly 5700 s and the “time to death after seizure onset” value ([1]; wild type mice) was 15 to 20 s.

In the case of `Oc1cc2c(cc1O)C(c1ccccc1)CNCC2` (stereo not shown) [SKF38393], the “reduction in the locomotor activity induced by the D1R agonist” value ([2]; Fgf14^N-βGal/N-βGal mice compared to wildtype) is reported as 30%.

In the case of `CC(N)Cc1ccccc1` (stereo not shown) [amphetamine], the “hyperactivity response relative to wildtype littermates” value ([2]; Fgf14^N-βGal/N-βGal mice, 2 and 4 mg/kg subcutaneous) is given as “significantly lower”, the “elevation of DA efflux above baseline” value (extracellular dopamine; 2 mg/kg) is given as 350% and the “elevation of DA efflux above baseline” value (extracellular dopamine; 4 mg/kg) is given as 750%. The locomotor response ([3]; 2 mg/kg) was “non-responsive” and the locomotor response ([3]; 5 mg/kg) was “decreased response”.

For `COC(=O)[C@H]1[C@@H](OC(=O)c2ccccc2)C[C@@H]2CC[C@H]1N2C` [cocaine], the EEG recording [4, 5] was “epileptiform activity”, the “induction of seizures (behaviour)” value [4, 5] was “brief tonic movements” and the induction of seizures ([4]; both wildtype and FGF14 deficient mice, 80 mg/kg) was “tonic-clonic seizures”. For the same compound, the induction of seizures ([4]; wildtype mice, 40 mg/kg) was “did not induce seizures”.
